We go through 1 compound from patent US20050106242A1, “Melt blend dispersions” (priority 2003, published 2005).

A short description of series [1]: Water solubility of progesterone in artificial intestinal fluid. Format: physicochemical. The note with it: fassgf or other biorelevant; at 37° C. in artificial intestinal fluid (AIF).
Series [2] can be described thus: Particle size of progesterone precipitation in AIF (Horiba LA-910 laser scattering). Type of series: physicochemical. The note with it: ~4 mg progesterone in 15 ml AIF, shaken at 37° C.; FIG. 1 and FIG. 2. The procedure: Samples as indicated below containing ˜4 mg of progesterone were added to 15 ml AIF and then were shaken in a water bath at 37° C. The particle size of the progesterone precipitation was measured with Horiba LA-910 laser scattering particle size analyzer.

Values after ≈ are worked out from the molar mass of the structure shown.

Regarding `CC(=O)[C@H]1CC[C@H]2[C@@H]3CCC4=CC(=O)CC[C@]4(C)[C@H]3CC[C@]12C` [Progesterone, pregn-4-ene-3,20-dione], in series [1], the concentration in solution (solubility) was 12 µg/mL (≈ 38.2 µM). The mean particle size in series [2] is 72.4 μm.
